Reference: patent publication US9018388B2, “Pesticidal compositions and processes related thereto” (Dow AgroSciences LLC, priority 2012, dated 2015)

How the values were obtained:
[1] = system: Beet Armyworm (BAW) (Spodoptera exigua); assay: Bioassay on beet armyworm (BAW), 128-well diet tray assay; type: in vivo; settings: Spodoptera exigua; Beet armyworm, 50 μg/cm^2; read-out: % Mortality BAW 50 μg/cm^2
Procedure, shortened: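 Second-instar Spodoptera exigua larvae, one to five per well, on artificial diet treated with 50 μg/cm^2 compound in 90:10 acetone-water and dried, eight wells per compound. Held at 25 °C, 14:10 light-dark for five to seven days; percent mortality averaged over wells.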

[2] = system: Corn Earworm (CEW) (Helicoverpa zea); assay: Bioassay on corn earworm (CEW), 128-well diet tray assay; type: in vivo; settings: Helicoverpa zea; Corn earworm, 50 μg/cm^2; read-out: % Mortality CEW 50 μg/cm^2
Procedure, shortened: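 Second-instar Helicoverpa zea larvae (one to five per well) placed on artificial diet treated with 50 μg/cm^2 compound in 90:10 acetone-water, dried, eight wells per compound. Held at 25 °C, 14:10 light-dark, five to seven days; percent mortality averaged over wells.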

`CC1CCS/C(=N\N=C\c2ccc(-c3ncn(-c4ccc(OC(F)(F)F)cc4)n3)cc2)N1c1ccccc1OC(F)F` (stereo not shown) [Compound 221C] was tested. Which pest or weed control at 50 µg/cm2, 50 µg/cm2 [1] did it give?
The pest or weed control at 50 µg/cm2, 50 µg/cm2 was 50 to 100%.

And the pest or weed control at 50 µg/cm2, 50 µg/cm2 [2]?
Its pest or weed control at 50 µg/cm2, 50 µg/cm2 is 50 to 100%.

What does the source list for `Cc1cccc(C)c1N1C(=O)CS/C1=N\N=C\c1ccc(-c2ncn(-c3ccc(OC(F)(F)C(F)(F)F)cc3)n2)cc1` [Compound 100C]?
pest or weed control at 50 µg/cm2, 50 µg/cm2 [1]: 50 to 100%; pest or weed control at 50 µg/cm2, 50 µg/cm2 [2]: 50 to 100%

Which results are given for `CC(/N=C(/N/N=C/c1ccc(-c2ncn(-c3ccc(OC(F)(F)F)cc3)n2)cc1)SCC(=O)O)c1ccccc1` (stereo not shown) [Compound 54C]?
pest or weed control at 50 µg/cm2, 50 µg/cm2 [1]: 50 to 100%; pest or weed control at 50 µg/cm2, 50 µg/cm2 [2]: 50 to 100%

What does the source list for `CC1S/C(=N\N=C\c2ccc(-c3ncn(-c4ccc(OC(F)(F)F)cc4)n3)cc2)N(c2ccccc2C2CC2)C1=O` (stereo not shown) [Compound 127C]?
pest or weed control at 50 µg/cm2, 50 µg/cm2 [1]: 50 to 100%; pest or weed control at 50 µg/cm2, 50 µg/cm2 [2]: 50 to 100%

For `O=C1CCS/C(=N\N=C\c2ccc(-c3ncn(-c4ccc(OC(F)(F)F)cc4)n3)cc2)N1c1c(F)cccc1F` [Compound 226C], which pest or weed control at 50 µg/cm2, 50 µg/cm2 [1] is on record?
The pest or weed control at 50 µg/cm2, 50 µg/cm2 was 50 to 100%.

And the pest or weed control at 50 µg/cm2, 50 µg/cm2 [2]?
The pest or weed control at 50 µg/cm2, 50 µg/cm2 was 50 to 100%.

Which results are given for `Cc1cc(Cl)cc(C)c1N1C(=O)CS/C1=N\N=C\c1ccc(-c2ncn(-c3ccc(OC(F)(F)F)cc3)n2)cc1` [Compound 105C]?
pest or weed control at 50 µg/cm2, 50 µg/cm2 [1]: 50 to 100%; pest or weed control at 50 µg/cm2, 50 µg/cm2 [2]: 50 to 100%

What does the source list for `COc1ccc(N2CCS/C2=N\N=C\c2ccc(-c3ncn(-c4ccc(OC(F)(F)F)cc4)n3)cc2)c(C)c1` [Compound 137C]?
pest or weed control at 50 µg/cm2, 50 µg/cm2 [1]: 50 to 100%; pest or weed control at 50 µg/cm2, 50 µg/cm2 [2]: 50 to 100%

How did the pest or weed control at 50 µg/cm2, 50 µg/cm2 [1] turn out when `CC(C)(C)c1ccccc1N1C(=O)CS/C1=N\N=C\c1ccc(-c2ncn(-c3ccc(OC(F)(F)F)cc3)n2)cc1` [Compound 125C] was run?
Its pest or weed control at 50 µg/cm2, 50 µg/cm2 is 50 to 100%.

What about the pest or weed control at 50 µg/cm2, 50 µg/cm2 [2] of the same molecule?
The pest or weed control at 50 µg/cm2, 50 µg/cm2 was 50 to 100%.

For `CCC(C)c1ccccc1N1CCCS/C1=N\N=C\c1ccc(-c2ncn(-c3ccc(OC(F)(F)F)cc3)n2)cc1` (stereo not shown) [Compound 183C], which pest or weed control at 50 µg/cm2, 50 µg/cm2 [1] is on record?
Its pest or weed control at 50 µg/cm2, 50 µg/cm2 is 50 to 100%.

And the pest or weed control at 50 µg/cm2, 50 µg/cm2 [2]?
Its pest or weed control at 50 µg/cm2, 50 µg/cm2 is 50 to 100%.

What does the source list for `Cc1cccc(C)c1/N=C(/N/N=C/c1ccc(-c2ncn(-c3ccc(OC(F)(F)F)cc3)n2)cc1)SCC(=O)N1CCNCC1` [Compound 67C]?
pest or weed control at 50 µg/cm2, 50 µg/cm2 [1]: 50 to 100%; pest or weed control at 50 µg/cm2, 50 µg/cm2 [2]: 50 to 100%

How did the pest or weed control at 50 µg/cm2, 50 µg/cm2 [1] turn out when `Cc1cccc(C)c1/N=C(/N/N=C/c1ccc(-c2ncn(-c3ccc(OC(F)(F)F)cc3)n2)cc1)SCC(=O)NCCCN(C)C(=O)OC(C)(C)C` [Compound 61C] was run?
The pest or weed control at 50 µg/cm2, 50 µg/cm2 was 50 to 100%.

And the pest or weed control at 50 µg/cm2, 50 µg/cm2 [2]?
Its pest or weed control at 50 µg/cm2, 50 µg/cm2 is 50 to 100%.

Which pest or weed control at 50 µg/cm2, 50 µg/cm2 [1] does the source give for `CC(C)=Cc1ccccc1N1CCCS/C1=N\N=C\c1ccc(-c2ncn(-c3ccc(OC(F)(F)F)cc3)n2)cc1` [Compound 197C] here?
Its pest or weed control at 50 µg/cm2, 50 µg/cm2 is 50 to 100%.

What about the pest or weed control at 50 µg/cm2, 50 µg/cm2 [2] of the same molecule?
Its pest or weed control at 50 µg/cm2, 50 µg/cm2 is 50 to 100%.

Which pest or weed control at 50 µg/cm2, 50 µg/cm2 [1] does the source give for `CC(C)c1cccc(F)c1N1CS/C1=N\N=C\c1ccc(-c2ncn(-c3ccc(OC(F)(F)F)cc3)n2)cc1` [Compound 250C] here?
The pest or weed control at 50 µg/cm2, 50 µg/cm2 was 50 to 100%.

What about the pest or weed control at 50 µg/cm2, 50 µg/cm2 [2] of the same molecule?
Its pest or weed control at 50 µg/cm2, 50 µg/cm2 is 50 to 100%.

For `Cc1cccc(C)c1/N=C(/N/N=C/c1ccc(-c2ncn(-c3ccc(OC(F)(F)F)cc3)n2)cc1)SCc1c(-c2ccccc2)noc1C` [Compound 20C], which pest or weed control at 50 µg/cm2, 50 µg/cm2 [1] is on record?
Its pest or weed control at 50 µg/cm2, 50 µg/cm2 is 50 to 100%.

What about the pest or weed control at 50 µg/cm2, 50 µg/cm2 [2] of the same molecule?
Its pest or weed control at 50 µg/cm2, 50 µg/cm2 is 50 to 100%.

For `Fc1cccc(Cl)c1N1CCS/C1=N\N=C\c1ccc(-c2ncn(-c3ccc(OC(F)(F)F)cc3)n2)cc1` [Compound 143C], which pest or weed control at 50 µg/cm2, 50 µg/cm2 [1] is on record?
The pest or weed control at 50 µg/cm2, 50 µg/cm2 was 50 to 100%.

And the pest or weed control at 50 µg/cm2, 50 µg/cm2 [2]?
The pest or weed control at 50 µg/cm2, 50 µg/cm2 was 50 to 100%.

What does the source list for `CC1CS/C(=N\N=C\c2ccc(-c3ncn(-c4ccc(OC(F)(F)F)cc4)n3)cc2)N(c2ccccc2OC(F)(F)F)C1` (stereo not shown) [Compound 214C]?
pest or weed control at 50 µg/cm2, 50 µg/cm2 [1]: 50 to 100%; pest or weed control at 50 µg/cm2, 50 µg/cm2 [2]: 50 to 100%

With `Cc1cccc(C)c1/N=C(/N/N=C/c1ccc(-c2ncn(-c3ccc(OC(F)(F)F)cc3)n2)cc1)SCOC(=O)C(C)(C)C` [Compound 36C] as the molecule, how does the pest or weed control at 50 µg/cm2, 50 µg/cm2 [1] read?
The pest or weed control at 50 µg/cm2, 50 µg/cm2 was 50 to 100%.

What about the pest or weed control at 50 µg/cm2, 50 µg/cm2 [2] of the same molecule?
Its pest or weed control at 50 µg/cm2, 50 µg/cm2 is 50 to 100%.

Which pest or weed control at 50 µg/cm2, 50 µg/cm2 [1] does the source give for `Fc1cccc(F)c1N1CCS/C1=N\N=C\c1ccc(-c2ncn(-c3ccc(OC(F)(F)F)cc3)n2)cc1` [Compound 148C] here?
The pest or weed control at 50 µg/cm2, 50 µg/cm2 was 50 to 100%.

And the pest or weed control at 50 µg/cm2, 50 µg/cm2 [2]?
The pest or weed control at 50 µg/cm2, 50 µg/cm2 was 50 to 100%.

What does the source list for `Cc1cccc(C(C)C)c1N1C(=O)CS/C1=N\N=C\c1ccc(-c2ncn(-c3ccc(OC(F)(F)F)cc3)n2)cc1` [Compound 238C]?
pest or weed control at 50 µg/cm2, 50 µg/cm2 [1]: 50 to 100%; pest or weed control at 50 µg/cm2, 50 µg/cm2 [2]: 50 to 100%

For `COC(=O)C1CC(c2ccc(/C=N/N=C3\SCC(=O)N3c3c(C)cccc3C)cc2)=NN1c1ccc(OC(F)(F)F)cc1` (stereo not shown) [Compound 110C], which pest or weed control at 50 µg/cm2, 50 µg/cm2 [1] is on record?
The pest or weed control at 50 µg/cm2, 50 µg/cm2 was 50 to 100%.

What about the pest or weed control at 50 µg/cm2, 50 µg/cm2 [2] of the same molecule?
Its pest or weed control at 50 µg/cm2, 50 µg/cm2 is 50 to 100%.
